In patent US9730956B2 (priority 2014, dated 2017):

Columns and labels:
[1] = tested on: T. mentagrophytes; experiment: NORS antifungal effect on mycelial viability; format: cell-based, Trichophyton mentagrophytes; details: 30 minute exposure; 0.14% sodium nitrite (pH 6) or citric acid at pH 3.7 alone
[2] = tested on: T. rubrum; experiment: NORS antifungal effect on mycelial viability; format: cell-based, Trichophyton rubrum; details: 30 minute exposure; 0.14% sodium nitrite (pH 6) or citric acid at pH 3.7 alone

Structure (SMILES)	effect of single NORS component on mycelial viability [1]	effect of single NORS component on mycelial viability [2]
O=C(O)CC(O)(CC(=O)O)C(=O)O [citric acid]	Minimal to no effect	Minimal to no effect
O=NO [sodium nitrite]	Minimal to no effect	Minimal to no effect
